Reference: US4210638A, “Antiviral composition and method of treating virus diseases” (PCR, Inc., priority 1978, dated 1980)
Where “and” joins values, the source holds several entries; their conditions need not be identical. Identical values can stand only once. Like-named read-outs stand apart in the source and are kept apart here.

Legend:
[1] = Incubation with acetate buffer (pH 4.5); format: physicochemical; settings: 9 hours
Method: (§1) The results of incubation with HNO2 (pH 4.5) at room temperature were identical to those obtained above.

[2] = Solubility; format: physicochemical
[3] = Incubation with HNO2 (pH 4.5) at room temperature; format: physicochemical; settings: 9 hours
Method: as §1

[4] = system: HSV-1; test: Antiviral activity vs HSV-1 in HEp-2 cells (plaque assay in BHK cells); format: cell-based; settings: for Log10 S.F. vs HSV-1: + H4 U (from FIG. 3)
Method: (§2) The culture medium containing the nucleoside analogs at varying concentrations are added to the infected cultures. In the case of HEp-2 cells which contain high deaminase levels, H4 U is incorporated into the medium. At 48 hours, virus is harvested from the cultures by freezing and thawing. The virus produced from each culture is titred by plaque assay in BHK cells. By using this protocol the antiviral effectiveness of F3 methyl dC can be compared directly with the effectiveness of other antiviral agents. Furthermore, by including H4 U in the medium, the effectiveness of F3 methyl dC can be determined without deamination at the nucleoside level.

[5] = system: HSV-2; test: Antiviral activity vs HSV-2 in HEp-2 cells (plaque assay in BHK cells); format: cell-based; settings: for Average Log10 S.F.: +H4 U
Method: as §2

[6] = system: cytidine deaminase; test: Incubation with crude cytidine deaminase extract of HEP-2 cells (deamination); format: in vitro ADME, human; settings: crude HEP-2 cytidine deaminase extract; Whatman 3MM chromatography
[7] = Survival / toxicity in the mouse; settings: in vivo
Method: That is, 3 mg/kg body weight to 75 mg/kg body weight; for example, about 10 mg/kg body weight per day for 7 days or 700 mg for a 70 kg man per day for 7 days. […] 100 percent survival was obtained with a dose of 50 mg.

[8] = biological target: T1, HSV-2 induced pyrimidine deoxyribonucleoside kinase (Human herpesvirus 2 strain HG52, UniProt P89446); test: Phosphorylation by HSV-2 induced pyrimidine deoxyribonucleoside kinase; format: biochemical
T1 construct: preparation not described in the excerpts
From the text: The following spots were eluted into H2 O and scanned from 225 to 350 nm: (a) standard, (b) F3 methyl dC standard, […] spot after cytidine deaminase treatment of F3 dT and […] spot after cytidine deaminase treatment of F3 methyl dC. The u.v. absorption profile of F3 dT derived from deamination of F3 methyl dC is identical to that obtained from authentic F3 dT.
Solutions a, c, and d, above, were adjusted to the same O. D. and used as substrates for HSV-2 induced pyrimidine deoxyribonucleoside kinase. Results:
Stock solutions of F3 dT and F3 methyl dC were made up and adjusted to the same concentration as the F3 dT and F3 methyl dC purified chromatographically (solutions a and b, respectively). Usually, F3 methyl dC is phosphorylated 1/6 of the extent that F3 dT is phosphorylated. […] This experiment was performed twice. Results:
Values for chromatographically purified samples are probably lower due to impurities arising from non-acid washed paper.

[9] = system: Herpes-varicella-zoster virus (VZV); test: Antiviral activity against cells infected with Herpes-varicella-zoster virus; format: cell-based
[10] = Metabolic stability; settings: versus prior antiviral agents
[11] = system: HEp-2 cells; test: Cytotoxicity vs HEp-2 cells (colony formation, % survival); settings: for % Survival: 2880 min
[12] = as above; settings: human, hep-2 cells; for viability at 48 h, 60 µM: % S of HEp-2 cells, 0.06 mM; for viability at 48 h, 3 µM: 0.003 mM; for viability at 48 h, 30 µM: 0.03 mM; for viability at 48 h, 300 µM: 0.3 mM
[13] = % Survival, +H4 U 500 μg/ml (experiment 3 and 4)

T1 sequence (P89446 whole entry): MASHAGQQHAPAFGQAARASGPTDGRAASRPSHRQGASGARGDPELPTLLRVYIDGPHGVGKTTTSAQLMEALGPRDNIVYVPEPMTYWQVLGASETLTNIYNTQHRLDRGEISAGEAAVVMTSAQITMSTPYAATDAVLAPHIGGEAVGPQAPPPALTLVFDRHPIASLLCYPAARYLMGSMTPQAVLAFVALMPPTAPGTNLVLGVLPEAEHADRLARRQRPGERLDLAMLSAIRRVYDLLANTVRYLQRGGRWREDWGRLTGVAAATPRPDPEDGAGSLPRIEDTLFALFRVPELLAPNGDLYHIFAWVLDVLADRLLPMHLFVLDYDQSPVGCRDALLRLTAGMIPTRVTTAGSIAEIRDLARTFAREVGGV

**Q.** Which results are given for Nc1nc(=O)n([C@H]2C[C@H](O)[C@@H](CO)O2)cc1C(F)(F)F [F3 methyl dC, 5-trifluoromethyl-2'-deoxycytidine]?
**A.** modification in acetate buffer [1]: did not lead to modification; solubility in DMSO ([2]; DMSO): a solvent for the F3 methyl dC; solubility in acetone ([2]; acetone): insoluble in acetone; solubility in water ([2]; water): partially soluble in water; conversion to a product that has the same Rf as F3 dT [3]: approximately 98%; Log10 S.F. vs HSV-1 ([4]; 0.003 mM): -4.2; Log10 S.F. vs HSV-1 ([4]; 0.03 mM): < -4.6; antiviral activity vs HSV-1 compared with F3 dT±H4 U ([4]; ±H4 U (FIG. 3)): more potent antiviral activity than F3 dT±H4 U; Log10 Surviving Fraction of Plaque Forming Units ([5]; 0.003 mM, +H4 U 500 μg/ml (experiment 3 and 4)): -1.9; Average Log10 S.F. ([5]; 0.003 mM, average): -1.7; Average Log10 S.F. ([5]; 0.03 mM, average): -3.6; Log10 Surviving Fraction of Plaque Forming Units ([5]; 0.3 mM, +H4 U 100 μg/ml (experiment 1 and 2)): -3.7; Average Log10 S.F. ([5]; 0.3 mM, average): -3.7; log reduction at 3 µM ([5]; Human alphaherpesvirus 2, 48 h, 0.003 mM, -H4 U, average, read-out: Average Log10 S.F.): 0.94; log reduction at 30 µM ([5]; Human alphaherpesvirus 2, 48 h, 0.03 mM, +2'dH4 U 500 μg/ml, read-out: Log10 S.F. HSV-2): 3.5; log reduction at 30 µM ([5]; Human alphaherpesvirus 2, 48 h, 0.03 mM, +H4 U 500 μg/ml, read-out: Log10 S.F. HSV-2): 3.4; log reduction at 30 µM ([5]; Human alphaherpesvirus 2, 48 h, 0.03 mM, -H4 U, average, read-out: Average Log10 S.F.): 3.2; log reduction at 30 µM ([5]; Human alphaherpesvirus 2, 48 h, 0.03 mM, no addition, read-out: Log10 S.F. HSV-2): 3.3; log reduction at 300 µM ([5]; Human alphaherpesvirus 2, 48 h, 0.3 mM, -H4 U, average, read-out: Average Log10 S.F.): 3.7; log reduction at 300 µM ([5]; Human alphaherpesvirus 2, 48 h, 0.3 mM, -H4 U, read-out: Log10 Surviving Fraction of Plaque Forming Units): 3.7; log reduction at 30 µM ([5]; Human alphaherpesvirus 2, 48 h, read-out: Log10 Surviving Fraction of Plaque Forming Units, 0.03 mM, -H4 U): 3.1; chromatographic change on incubation with cytidine deaminase [6]: formation of an Rf =0.43 spot and disappearance of the 0.80 spot; survival at 168 h ([7]; 50 mg/kg/day for 7 days, coadministered with H4 U): 100%; survival at 168 h ([7]; 250 mg/kg once per day for 7 days, H4 U coadministered one hour prior): 60%; LD50 at 168 h ([7]; coadministered with H4 U, for 7 days): 325 mg/kg; ratio of phosphorylation relative to F3 dT ([8]; chromatographically purified): Approx 1/3; nmoles phosphorylated/4 hrs ([8]; chromatographically purified, value in parentheses (experiment performed twice)): 0.06 nmoles/4 hrs; nmoles phosphorylated/4 hrs ([8]; chromatographically purified, value outside parentheses): 0.04 nmoles/4 hrs; ratio of phosphorylation relative to F3 dT ([8]; standard solutions): Approx 1/4; nmoles phosphorylated/4 hrs ([8]; standard solutions, value in parentheses (experiment performed twice)): 0.08 nmoles/4 hrs; nmoles phosphorylated/4 hrs ([8]; standard solutions, value outside parentheses): 0.48 nmoles/4 hrs; extent of phosphorylation relative to F3 dT ([8]; usual value): 1/6; antiviral activity against cells infected with VZV [9]: selective antiviral activity; metabolic stability [10]: substantially increased metabolic stability; % Survival ([11]; 0.003 mM, +H4 U 100 μg/ml (experiment 1 and 2), 3 µM): 93%; % Survival ([11]; 0.003 mM, +H4 U 500 μg/ml (experiment 3 and 4), 3 µM): 61%; % Survival ([11]; 0.003 mM, -H4 U, 3 µM): 3% and 0.1% and 0.6%; % Survival ([11]; 0.03 mM, +H4 U 500 μg/ml (experiment 3 and 4), 30 µM): 31%; cytotoxicity at concentrations with antiviral activity ([11]; +H4 U): only marginally cytotoxic; increased survival with H4 dU than with H4 U ([11]; F3 methyl dC with H4 dU versus with H4 U): ~5 fold; therapeutic index ([11]; with H4 U, HSV-2 vs HEp-2 cytotoxicity): high therapeutic index; cytotoxicity at concentrations with antiviral activity ([11]; without H4 U): extremely cytotoxic; cytotoxicity at effective antiviral concentrations ([11]; ±H4 U (summary of Table IV)): marginal to only moderate cytotoxicity; viability at 48 h, 60 µM ([12]; +2'dH4 U 500 μg/ml): 50 ± 5%; viability at 48 h, 60 µM ([12]; +H4 U 500 μg/ml): 9 ± 3%; viability at 48 h, 60 µM ([12]; no addition): < 0.006%; viability at 48 h, 3 µM ([12]; % Survival, +H4 U 100 μg/ml (experiment 1 and 2)): 100%; viability at 48 h, 3 µM [12, 13]: 53%; viability at 48 h, 30 µM [12, 13]: 25%; viability at 48 h, 300 µM [12, 13]: 0.001%; viability at 48 h, 3 µM ([12]; Average % S, +H4 U, average): 77%; viability at 48 h, 3 µM ([12]; Average % S, -H4 U, average): 0.95%; viability at 48 h, 30 µM ([12]; Average % S, +H4 U, average): 32%; viability at 48 h, 30 µM ([12]; Average % S, -H4 U, average): < 0.01%; viability at 48 h, 300 µM ([12]; Average % S, +H4 U, average): < 0.01%; viability at 48 h, 300 µM ([12]; Average % S, -H4 U, average): < 0.01%
